# Source: US20070238700A1, “N-PHENYL-1,1,1-TRIFLUOROMETHANESULFONAMIDE HYDRAZONE DERIVATIVE COMPOUNDS AND THEIR USAGE IN CONTROLLING PARASITES” (priority 2006, published 2007)
# Where two headings read alike, the source gives them in different places.
# Tests used:
# Ctenocephalides felis [1] = system: Ctenocephalides felis
# Procedure, shortened: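 Adult cat fleas (3–7 days post-emergence), 15 per flask in ≥4 replicates, exposed to a dried acetone residue at 1.26 μg/cm^2 on a Coatasil-treated glass flask base. Held at 25±1° C, 75±5% humidity; mortality (immobile or unable to right) scored at 8, 24 and/or 48 h.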
# Ctenocephalides felis [2] = test: Ctenocephalides felis adulticide assay: C. felis dose response (LC50)
# Excerpt: c) Ctenocephalides felis Adulticide Assay: C. felis Dose Response
# The purpose of this example was to determine the LC50 when cat fleas were contacted with a glass surface treated with sample compounds or formulations prepared as described above. […] The test species was the cat flea (Ctenocephalides felis). The strain used was obtained from external suppliers as pupae and held in the laboratory under testing conditions until the adults had emerged. Fifteen (15) fleas were used in a minimum of four replicates for each dose level (total of 60 fleas per dose level). The insects were selected to be in the adult life stage, aged between 3 and 7 days post emergence.
# The compounds to be tested were dissolved in acetone just prior to testing. Samples of compounds were stored in a refrigerator (5±1° C.) unless otherwise specified. During the mortality testing, the temperature was maintained at 25±1° C. Humidity was maintained at 75±5%. The base (area=159 mm^2) of a 100 mL glass Erlenmeyer (conical) flask provided the treatment surface. Flasks were pretreated with Coatasil™ glass treatment to maximise bio-availability of test compounds by preventing them from binding to the glass surface.
# The base of the 100 mL Erlenmeyer flask was treated with 0.5 mL of test sample in acetone and gently swirled. This volume was sufficient to cover the base of the flask. Flasks were left to dry for 24 hours before flea exposure. Adult cat fleas were lightly anaesthetised by cooling and then placed into a sorting chamber, which allowed fleas to revive and jump into the Erlenmeyer flasks. Fifteen (15) adult cat fleas were collected in each flask. The top of the flasks were then covered in Parafilm™ and small holes made to allow gas exchange. A 0.5 mL volume of acetone was applied to the base of an Erlenmeyer flask and the testing proceeded in the same manner described above. Cat fleas in the treatment containers were held under testing conditions for 24 hours. Mortality resulting from the treatments was recorded at 8 and 24 hours.
# Rhipicephalus sanguineus [3] = test: Rapid screening protocol for topical application on brown dog ticks (% mortality); details: data from laboratory 2
# Procedure, shortened: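 Mixed-sex unfed adult ticks each received 1 μL test sample in acetone on the abdomen at a single screening dose chosen above the reference LD90 (fipronil 10 μg/tick), with acetone-only controls; 4 replicates of 10 ticks. Held 24 h at 25±1 °C; ticks unresponsive to light touch over 1 min scored dead, pooled as % mortality.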
# Rhipicephalus sanguineus [4] = test: Dose response protocol for topical application on brown dog ticks (LD50); details: 24 h mortality, probit analysis
# Experimental: e) Dose response protocol for topical application on brown dog ticks (Rhipicephalus sanguineus): The test determines the level of insecticidal activity of sample compounds or formulations when applied topically on brown dog ticks. Sample compounds were stored prior to use in a freezer (−5±1° C.), unless otherwise specified.
# • Mortality: A tick is defined as dead after it gives no apparent response when touched lightly or gently breathed upon, while observed for 30 seconds. • LD50 (Lethal Dose 50): The dose of a topically applied treatment at which 50% of the dog ticks are killed. • Reference compound: To assess an experimental compound for significant acaricidal activity a single dose level is chosen, which is based upon known results from previous experiments using a commercially available active i.e., a reference compound. The reference compound selected is one in common use, and one that has a similar mode of action against the Brown Dog Tick (i.e., the test species), • Recovery container: A recovery container consists of a 500 ml round plastic container measuring 115 mm diameter and 70 mm height, with a tight fitting lid that has 10 small (˜1 mm) holes inserted for air exchange. A 90 mm diameter piece of filter paper was placed on the bottom of the container and moistened with 1 mL of distilled water.
# Adult, mixed sex, Brown Dog Ticks (Rhipicephalus sanguineus) were reared as follows: (i) cultured, (ii) transferred unfed, to a testing laboratory, and (iii) then maintained under controlled conditions (i.e., temp. 18°±2° C., humidity 75±5% RH). The ticks used were selected for vigor prior to testing, i.e., capable of actively walking and responsive to being touched or gently breathed upon.
# During the testing, the temperature was maintained at 25±1° C. and the humidity was ambient. Seven dose levels (concentrations) of sample compound, in the form of serial dilutions in acetone, were derived from a pilot study and covered a range that produced very low to very high mortality. Groups of ten ticks were treated topically (on the abdomen) with 1 μL of a single dose level of the sample compound. Each test was replicated four times, i.e., employing a total of 40 ticks per dose level of each sample compound. As a control, ten ticks were treated with solvent only (acetone) for each test. Following the treatment, the ticks were held in recovery containers maintained under appropriate rearing conditions for 24 hours. Mortality resulting from the treatments was recorded at 24 hours. […] Press, London (1971).]
SMILES,C. felis Mortality (%) 8 h (Ctenocephalides felis [1]),C. felis Mortality (%) 24 h (Ctenocephalides felis [1]),C. felis LC50 (Ctenocephalides felis [2]),R. sanguineus Mortality (%) 24 h (Rhipicephalus sanguineus [3]),R. sanguineus LD50 (Rhipicephalus sanguineus [4]),C. felis LC50 (Ctenocephalides felis [2]; data from laboratory 1)
CCN(N=C(C)c1cc(Cl)ccc1NS(=O)(=O)C(F)(F)F)c1cc(Cl)cc(Cl)c1 [Compound 70],95%,100%,1.8 ppm,100%,4.1 μg/tick,
CCN(N=C(C)c1cc(Cl)ccc1NS(=O)(=O)C(F)(F)F)c1ccc(Cl)c(Cl)c1 [Compound 71],94%,100%,2.5 ppm,98%,4.2 μg/tick,
CCCN(N=C(C)c1cc(Cl)ccc1NS(=O)(=O)C(F)(F)F)c1cccc(F)c1 [Compound 72],100%,100%,1.5 ppm,100%,3.1 μg/tick,
CCCN(N=C(C)c1cc(Cl)ccc1NS(=O)(=O)C(F)(F)F)c1ccc(C)cc1 [Compound 73],96%,100%,2.1 ppm,88%,5.3 μg/tick,
CC(=NN(C)c1cccc(F)c1)c1cc(Cl)ccc1NS(=O)(=O)C(F)(F)F [Compound 74],100%,100%,0.76 ppm,100%,2.0 μg/tick,
CCN(N=C(C)c1cc(Cl)ccc1NS(=O)(=O)C(F)(F)F)c1cccc(F)c1 [Compound 76],100%,100%,0.42 ppm,98%,2.1 μg/tick,
CCC(=NN(C)C(=O)c1ccc(Cl)cc1)c1cc(Cl)ccc1NS(=O)(=O)C(F)(F)F [Compound 81],100%,100%,2.2 ppm,100%,1.49 μg/tick,
CCC(=NN(C)C(=O)c1ccc(Cl)cc1Cl)c1cc(Cl)ccc1NS(=O)(=O)C(F)(F)F [Compound 82],98%,100%,2.4 ppm,100%,2.0 μg/tick,
CC(=NN(C)c1ccc(Cl)c(Cl)c1)c1cc(Cl)ccc1NS(=O)(=O)C(F)(F)F [Compound 96],19%,99%,2.0 ppm,78%,3.0 μg/tick,
CC(=NN(C)c1cc(Cl)cc(Cl)c1)c1cc(Cl)ccc1NS(=O)(=O)C(F)(F)F [Compound 99],57%,100%,1.9 ppm,95%,3.1 μg/tick,
CC(=NN(C)c1cccc(Cl)c1Cl)c1cc(Cl)ccc1NS(=O)(=O)C(F)(F)F [Compound 100],55%,100%,1.7 ppm,70%,4.0 μg/tick,
CC(=NN(C)c1ccc(Cl)cc1)c1cc(Cl)ccc1NS(=O)(=O)C(F)(F)F [Compound 105],42%,100%,3.0 ppm,95%,1.4 μg/tick,
CC(=NN1CCCC1)c1cc(Cl)ccc1NS(=O)(=O)C(F)(F)F [Compound 116],98%,100%,2.66 ppm,93%,0.74 μg/tick,
CCOC(=O)N(CC)N=C(C)c1cc(Cl)ccc1NS(=O)(=O)C(F)(F)F [Compound 125],82%,100%,3.62 ppm,95%,0.64 μg/tick,
CCOC(=O)N(C)N=C(C)c1cc(Cl)ccc1NS(=O)(=O)C(F)(F)F [Compound 126],55%,97%,,100%,0.69 μg/tick,1.84 ppm
CCOC(=O)N(CC)N=C(CC)c1cc(Cl)ccc1NS(=O)(=O)C(F)(F)F [Compound 127],100%,100%,1.22 ppm,100%,0.54 μg/tick,
CCC(=NN1CCCCC1)c1cc(Cl)ccc1NS(=O)(=O)C(F)(F)F [Compound 129],27%,98%,2.82 ppm,98%,0.52 μg/tick,
CCC(=NN1CCCCC1)c1cc(Cl)ccc1NS(=O)(=O)C(F)(F)F [Compound 130],34%,91%,2.36 ppm,98%,1.08 μg/tick,
CCN(N=C(C)c1cc(Cl)ccc1NS(=O)(=O)C(F)(F)F)C(=O)OC [Compound 139],97%,100%,5.14 ppm,100%,0.39 μg/tick,
CCC(=NN(CC)C(=O)OC)c1cc(Cl)ccc1NS(=O)(=O)C(F)(F)F [Compound 140],89%,100%,3.70 ppm,100%,0.28 μg/tick,
CC(=NN(C)c1cccc(C(F)(F)F)c1)c1cc(Cl)ccc1NS(=O)(=O)C(F)(F)F [Compound 203],11%,98%,1.30 ppm,95%,0.68 μg/tick,
C/C(=N\N(C)C1CCCC1)c1cc(Cl)ccc1NS(=O)(=O)C(F)(F)F [Compound 211],12%,85%,1.9 ppm,98%,1.01 μg/tick,
C/C(=N\N(C)C1CCCCC1)c1cc(Cl)ccc1NS(=O)(=O)C(F)(F)F [Compound 215],8%,100%,2.54 ppm,73%,1.29 μg/tick,
CC(=O)N(CCC#N)/N=C(\C)c1cc(Cl)ccc1NS(=O)(=O)C(F)(F)F [Compound 221],15%,100%,2.2 ppm,90%,0.53 μg/tick,
